Source: the OligoGym collection
After the bases stand the sugars from the 5' end (letter, count) and the backbone: PS all phosphorothioate, else s phosphorothioate and o phosphodiester by linkage. Methylation of C is not given here. e = 2'-O-(2-methoxyethyl) (MOE); k = constrained ethyl (cEt); d = 2'-deoxy (DNA); m = 2'-O-methyl

Molecular target: HSD17B13
Details: ASO, HepaRG

| Sequence | target mRNA inhibition (1 µM) | also measured |
| --- | --- | --- |
| CTTCTCTTGGGTCCAT (sugars k3 d10 k3, PS) | 51% | – |
| GTCGGTCACCTTTCAT (sugars k3 d10 k3, PS) | 85% | target mRNA inhibition (0.02 µM): 16%; target mRNA inhibition (0.078 µM): 37%; target mRNA inhibition (0.313 µM): 57%; target mRNA inhibition (1.25 µM): 82%; target mRNA inhibition (5 µM): 90% |
| TCTTAGCTGTGCACTC (sugars k3 d1 m1 d8 k3, PS) | 71% | – |
| CATTAATGCCACCCTA (sugars k3 d10 k3, PS) | 8% | – |
| CTGATTACAGCATCAA (sugars k3 d10 k3, PS) | 40% | – |
| GTAACTGTATTAAGAC (sugars k3 d10 k3, PS) | 54% | – |
| GTAGTGGGAGTCGGAT (sugars k3 d10 k3, PS) | 48% | – |
| AGAAATCTAAGAACCC (sugars k3 d10 k3, PS) | 25% | – |
| AGACCAAAAAGATGGC (sugars k3 d10 k3, PS) | 80% | target mRNA inhibition (0.02 µM): 4%; target mRNA inhibition (0.078 µM): 35%; target mRNA inhibition (0.313 µM): 69%; target mRNA inhibition (1.25 µM): 82%; target mRNA inhibition (5 µM): 72% |
| ATTGGTAAGTATTCCA (sugars k3 d10 k3, PS) | 50% | – |
| TAGCAAAACACTTGCT (sugars k3 d10 k3, PS) | 21% | – |
| GGTTGAGATAAAGCTG (sugars k3 d1 m1 d8 k3, PS) | 57% | – |
| AGAGTTATCTGGTTTG (sugars k3 d10 k3, PS) | 56% | – |
| TGCAUCTTAAGATACC (sugars k3 d1 m1 d8 k3, PS) | 51% | – |
| ATCCCACAGAACCAAT (sugars k3 d10 k3, PS) | 34% | – |
| GAGTTGCACCGTTTTG (sugars k3 d9 k3 e1, PS) | 62% | – |
| TCCATGCAAAAGCATT (sugars k3 d10 k3, PS) | 62% | – |
| AGTTGCACCGTTTTGG (sugars k3 d1 m1 d8 k3, PS) | 38% | – |
| CCTCAAATGAGGCGGC (sugars k3 d10 k3, PS) | 47% | – |
| CTGCCAGATTGCACAA (sugars k3 d10 k3, PS) | 44% | – |
| TACAGGCCATAATCTT (sugars k3 d10 k3, PS) | 16% | – |
| ACCAGAATCCATTCTA (sugars k3 d10 k3, PS) | 60% | – |
| GGGAAAGAAGTCTCCT (sugars k3 d10 k3, PS) | 13% | – |
| CTAGTAATTGCATCTG (sugars k3 d10 k3, PS) | 57% | – |

| Sequence | target mRNA inhibition (1 µM) | also measured |
| --- | --- | --- |
| ATCTCTTAGCTGTGCA (sugars k3 d10 k3, PS) | 63% | – |
| CTTTGAGACTCTTGTT (sugars kkdddddddddkekek, PS) | 42% | – |
| ATCTATCATGCCTTCC (sugars k3 d10 k3, PS) | 6% | – |
| CTTAUGTAATAGCCAG (sugars k3 d1 m1 d8 k3, PS) | 75% | target mRNA inhibition (0.02 µM): 0%; target mRNA inhibition (0.078 µM): 0%; target mRNA inhibition (0.313 µM): 34%; target mRNA inhibition (1.25 µM): 65%; target mRNA inhibition (5 µM): 91% |
| ATGAGTAGGCAACTGA (sugars k3 d10 k3, PS) | 61% | – |
| ACCAATGCAGTTTGTA (sugars k3 d10 k3, PS) | 75% | target mRNA inhibition (0.02 µM): 6%; target mRNA inhibition (0.078 µM): 0%; target mRNA inhibition (0.313 µM): 32%; target mRNA inhibition (1.25 µM): 80%; target mRNA inhibition (5 µM): 90% |
| TTAAGCAGAATTGTGA (sugars k3 d10 k3, PS) | 7% | – |
| TAATTGCATCTGCTCG (sugars k3 d10 k3, PS) | 46% | – |
| TGTGGCATGGCTACAG (sugars k3 d9 k3 e1, PS) | 25% | – |
| TGATTGAGTTCTCCAC (sugars k3 d9 k3 e1, PS) | 30% | – |
| AAGACAGACCAAGTAG (sugars k3 d10 k3, PS) | 16% | – |
| GTGATTGAGTTCTCCA (sugars k3 d10 k3, PS) | 80% | target mRNA inhibition (0.02 µM): 10%; target mRNA inhibition (0.078 µM): 14%; target mRNA inhibition (0.313 µM): 32%; target mRNA inhibition (1.25 µM): 73%; target mRNA inhibition (5 µM): 83% |
| TAGGATGTTGACCTCA (sugars k3 d10 k3, PS) | 19% | – |
| CAGAAGTATGTGAACT (sugars k3 d10 k3, PS) | 22% | – |
| CTCTAAATACCCTTGG (sugars k3 d10 k3, PS) | 7% | – |
| TAACATTCGGCTAGGC (sugars k3 d10 k3, PS) | 52% | – |
| GAGAAGATCGGCTGGA (sugars k3 d10 k3, PS) | 6% | – |
| CAACTTTTAGTCAGGT (sugars k3 d10 k3, PS) | 66% | – |
| TGTCTAAACATCTCTG (sugars kkdddddddddkekek, PS) | 59% | – |
| TAGAATACGCTGAGAG (sugars k3 d10 k3, PS) | 47% | – |
| CATAACTTCATAGTGG (sugars k3 d10 k3, PS) | 31% | – |
| AGCTTGGAAGGAGACT (sugars k3 d10 k3, PS) | 69% | – |
| AAACATCTCTGGGACC (sugars k3 d9 k3 e1, PS) | 48% | – |
| ATAACTACAAGAGGTT (sugars k3 d1 m1 d8 k3, PS) | 61% | – |

| Sequence | target mRNA inhibition (1 µM) | also measured |
| --- | --- | --- |
| GGAGTATGACAACTGG (sugars k3 d10 k3, PS) | 28% | – |
| ATTCTGTGGCATGGCT (sugars k3 d9 k3 e1, PS) | 68% | – |
| TCTTAAACCTTCCCTG (sugars kkdddddddddkekek, PS) | 24% | – |
| ATACATCAACTCCTCT (sugars k3 d10 k3, PS) | 64% | target mRNA inhibition (0.02 µM): 0%; target mRNA inhibition (0.078 µM): 9%; target mRNA inhibition (0.313 µM): 26%; target mRNA inhibition (1.25 µM): 63%; target mRNA inhibition (5 µM): 83% |
| TTCAACTAAACATGAC (sugars k3 d10 k3, PS) | 55% | – |
| AATAGAGTCGGTCACC (sugars k3 d1 m1 d8 k3, PS) | 57% | – |
| GGATAGAGCACATGGC (sugars k3 d10 k3, PS) | 33% | – |
| ACATAGCTAACTCAGG (sugars k3 d10 k3, PS) | 38% | – |
| TGGCCTTACCAGAATT (sugars k3 d10 k3, PS) | 46% | – |
| CCAAAAATGTCCTAGG (sugars k3 d10 k3, PS) | 38% | – |
| GATAUTCTGTGGCATG (sugars k3 d1 m1 d8 k3, PS) | 60% | – |
| GGTTGAGATAAAGCTG (sugars k3 d9 k3 e1, PS) | 67% | – |
| TTTTTGAACCGTATTC (sugars k3 d10 k3, PS) | 56% | – |
| AATATTGAGGCACTGG (sugars k3 d10 k3, PS) | 54% | – |
| TGATTGAGTTCTCCAC (sugars kkdddddddddkekek, PS) | 32% | – |
| TCACCAACGACTCCAA (sugars k3 d10 k3, PS) | 19% | – |
| GTGGCATGGCTACAGA (sugars k3 d9 k3 e1, PS) | 38% | – |
| CTATAATACATTAGCA (sugars k3 d10 k3, PS) | 3% | – |
| ATTTATTGGTATGGTA (sugars k3 d10 k3, PS) | 46% | – |
| TAGCTAAGTATACTTT (sugars k3 d10 k3, PS) | 10% | – |
| TCAGATCCCGTTCTTG (sugars k3 d10 k3, PS) | 59% | – |
| TTGACATAACTTCATA (sugars k3 d10 k3, PS) | 15% | – |
| CGCAACAGTTTAGATT (sugars k3 d10 k3, PS) | 57% | – |
| CCAACGCAACAGTTTA (sugars k3 d10 k3, PS) | 77% | – |

| Sequence | target mRNA inhibition (1 µM) | also measured |
| --- | --- | --- |
| GACAACAAACAATGGG (sugars k3 d10 k3, PS) | 39% | – |
| ACAATCTCCCCAGCCA (sugars k3 d10 k3, PS) | 67% | – |
| ACACTAATTTAGTCAA (sugars k3 d10 k3, PS) | 16% | – |
| CACTAATATTGAGGCA (sugars k3 d10 k3, PS) | 31% | – |
| CAAAAGACTTTGAGAC (sugars k3 d1 m1 d8 k3, PS) | 25% | – |
| TGAGAGAACTTATACA (sugars k3 d10 k3, PS) | 32% | – |
| TGTGATTGAGTTCTCC (sugars k3 d10 k3, PS) | 62% | target mRNA inhibition (0.02 µM): 1%; target mRNA inhibition (0.078 µM): 14%; target mRNA inhibition (0.313 µM): 20%; target mRNA inhibition (1.25 µM): 42%; target mRNA inhibition (5 µM): 70% |
| TGCTGCTAGTGCCAAA (sugars k3 d1 m1 d8 k3, PS) | 50% | – |
| GTAGGAGTAGATGATG (sugars k3 d10 k3, PS) | 7% | – |
| TTGACCTCAAATGTCT (sugars k3 d10 k3, PS) | 0% | – |
| TAGCAATTTAGCAAGA (sugars k3 d10 k3, PS) | 54% | – |
| ATGGCTACAGATTGGA (sugars k3 d1 m1 d8 k3, PS) | 44% | – |
| ACATTCTTCAGGTGTT (sugars k3 d10 k3, PS) | 88% | target mRNA inhibition (0.02 µM): 0%; target mRNA inhibition (0.078 µM): 20%; target mRNA inhibition (0.313 µM): 48%; target mRNA inhibition (1.25 µM): 80%; target mRNA inhibition (5 µM): 90% |
| GGCTACTTTCAAACCT (sugars k3 d10 k3, PS) | 54% | – |
| TGAACCCAGTATTCAC (sugars k3 d10 k3, PS) | 10% | – |
| TTGAGTTCTCCACTGC (sugars k3 d1 m1 d8 k3, PS) | 18% | – |
| AGAACCAATATGCTCT (sugars k3 d10 k3, PS) | 38% | – |
| GTACATGCCAAGCTTT (sugars k3 d10 k3, PS) | 61% | – |
| CTGCTAGTGCCAAACC (sugars k3 d10 k3, PS) | 74% | – |
| GACAGTTGAGTAGTGT (sugars k3 d10 k3, PS) | 46% | – |
| GATTTAGTTGGTAGCT (sugars k3 d10 k3, PS) | 63% | – |
| TTAAGCATTGTTAGCT (sugars k3 d10 k3, PS) | 16% | – |
| TACTGTCCCAGCATTA (sugars k3 d10 k3, PS) | 21% | – |
| CTGCAAAGTTAATAGG (sugars k3 d10 k3, PS) | 57% | – |
